Experimental data reported in patent US20210369677A1, “SMALL MOLECULE ACTIVATORS OF POLYCYSTIN-2 (PKD2) AND USES THEREOF” (Northwestern University, priority 2020, published 2021).

Target: T1, polycystin-2L1 (Homo sapiens, UniProt Q9P0L9, C210S/C223S)
T1 construct: expressed in transfected cells; host or cells: HEK cells, transient overexpression
Type: cell-based
Settings: C210S:C223S mutant
Description: Electrophysiology. Ciliary ion currents were recorded using borosilicate glass electrodes polished to resistances of 14-22 MΩ using the cilium patch method previously described^32. Whole cell electrodes used to measure poly cystin-2L1 currents were fire polished to 1.5-4 MΩ resistances. Unless otherwise stated, whole cilia ionic currents were recorded in symmetrical [Na^+]. The pipette standard internal solution contained (in mM): 90 NaMES, 10 NaCl, 10 HEPES, 10 Na4-BAPTA (Glycine, N, N′-[1,2-ethanediylbis(oxy-2,1-phenylene)]bis[N-(carboxymethyl)]-,tetrasodium); pH was adjusted to 7.3 using NaOH. Standard bath solution contained 140 NaCl, 10 HEPES, 1.8 CaCl2); pH 7.4. All solutions were osmotically balanced to 295 (±6) mOsm with mannitol. Extracellular solutions containing TCEP and GSH were used within six hours of formulation. Data were collected using an Axopatch 200B patch clamp amplifier, Digidata 1440A, and pClamp 10 software. Whole-cilium and excised patch currents were digitized at 25 kHz and low-pass filtered at 10 kHz. In the whole cilium configuration, the holding potential was −60 mV and then depolarized using a 400 ms voltage ramp from −100 mV to 100 mV. The whole cell recordings of polycystin-2L1 currents were either activated by the same ramp protocol or by 100 ms depolarizations to 100 mV from a −100 mV holding potential. External conditions were controlled using a Warner Perfusion Fast-Step (SF-77B) system in which the patched cilia and electrode were held in the perfusate stream. Data were analyzed by Igor Pro 7.00 (Wavemetrics, Lake Oswego, Oreg.). The polycystin-2 open probability and the polycystin-2L1 tail current-voltage relationships were fit to a Boltzmann function, f(x)=1/(1+exp[V−V1/2]/k) to estimate voltage of half-maximal activation of current (V1/2).

T1 sequence (Q9P0L9 whole entry C210S/C223S): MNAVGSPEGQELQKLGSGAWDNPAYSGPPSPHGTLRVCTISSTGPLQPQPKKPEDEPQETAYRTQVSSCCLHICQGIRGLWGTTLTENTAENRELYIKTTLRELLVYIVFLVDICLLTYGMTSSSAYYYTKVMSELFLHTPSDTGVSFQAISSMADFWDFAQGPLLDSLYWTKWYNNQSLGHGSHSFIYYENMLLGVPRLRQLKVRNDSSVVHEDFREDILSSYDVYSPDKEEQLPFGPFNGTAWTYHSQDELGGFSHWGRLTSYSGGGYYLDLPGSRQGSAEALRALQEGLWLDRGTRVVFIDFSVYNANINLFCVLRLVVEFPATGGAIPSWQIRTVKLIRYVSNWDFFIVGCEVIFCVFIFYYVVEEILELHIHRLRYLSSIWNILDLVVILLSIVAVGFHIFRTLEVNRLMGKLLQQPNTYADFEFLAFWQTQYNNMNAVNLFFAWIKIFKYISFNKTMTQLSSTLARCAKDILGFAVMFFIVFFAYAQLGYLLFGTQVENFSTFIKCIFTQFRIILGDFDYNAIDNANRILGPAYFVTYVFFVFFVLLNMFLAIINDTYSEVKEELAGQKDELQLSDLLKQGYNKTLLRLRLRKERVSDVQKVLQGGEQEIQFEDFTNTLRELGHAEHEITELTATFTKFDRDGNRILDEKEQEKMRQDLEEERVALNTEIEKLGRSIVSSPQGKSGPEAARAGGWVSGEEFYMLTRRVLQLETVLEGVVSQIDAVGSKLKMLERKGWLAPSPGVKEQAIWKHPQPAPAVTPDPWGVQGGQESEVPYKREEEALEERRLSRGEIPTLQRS

Effect on C210S:C223S polycystin-2L1 channel: insensitive
Compound: N[C@@H](CCC(=O)N[C@@H](CS)C(=O)NCC(=O)O)C(=O)O [GSH, reduced glutathione]
